Laboratory results as given in patent US20230330122A1, “PHARMACOLOGICAL TREATMENT OF AUTISM SPECTRUM DISORDER” (priority 2022, published 2023).

Experiments:
OCD mouse models = conditions: 3 different mouse models; cited from earlier work
[1] = test system: SHANK3 autism mouse model; test: Compulsive behavior in SHANK3 autism mouse model; format: in vivo
From the text: FIGS. 5 and 6 present data collected by experiments using a SH3 And Multiple Ankyrin Repeat Domains 3 (SHANK3) autism mouse model. SHANK3 was the first to be associated with autism which was used by Joao Peca et al. (2011) to create the mouse model currently in use. […] The SHANK family of proteins has been strongly implicated as a contributing factor in autism in certain individuals and sits at the core of the alleged autistic pathway. The SHANK proteins lie at the heart of this synaptic map of autistic pathology, binding to Metabotropic Glutamate Receptors (mGluRs) indirectly, via the Homer family of adaptor proteins, and to both N-methyl-D-aspartate receptors (NMDARS) and Neuroligins (NLGNs) indirectly, via guanylate kinase-associated protein (GKAP) and Postsynaptic density protein 95 (PSD-95). They also link to the actin cytoskeleton, providing a multivalent scaffold upon which to build the postsynaptic density.
Compulsive behavior was used as a readout to evaluate the effectiveness of autistic symptom amelioration through NMN treatment. […] A baseline was recorded for both groups. The effect of a placebo was evaluated for both groups. NMN was administered to subjects of each group and the results were recorded. The results of treatment with NMN over 1 week were also recorded.

SMILES | treating OCD (OCD mouse models) | compulsive behavior in seconds observed over a 5-minute period ([1]; SHANK3 autistic group and control group, NMN administered, also NMN over 1 week, FIG. 5) | safety of treatment ([1]; SHANK3 mouse model, NMN treatment)
O=C(O)C(Cc1c[nH]c2ccccc12)N1C(=O)c2ccccc2C1=O (stereo not drawn) [RG108] | successful in treating OCD |  | 
NC(=O)c1ccc[n+]([C@@H]2O[C@H](COP(=O)([O-])O)[C@@H](O)[C@H]2O)c1 [NMN, nicotinamide mononucleotide] |  | significantly reducing the exhibition of compulsive behavior | SAFE
